Series [1] can be described thus: Pharmacokinetics in male Sprague Dawley rats. Particulars: rat, sc, mean, single subcutaneous administration of 200 nMol/kg, plasma. In kind it is in vivo. The method, then: The pharmacokinetics of the exemplary analogs are evaluated following a single subcutaneous administration of […] to male Sprague Dawley rats. Blood samples are collected over 120 hours, and resulting individual plasma concentrations are used to calculate pharmacokinetic parameters. Peptide plasma (K3 EDTA) concentrations are determined using a qualified LC/MS method that measured the intact mass of the ANP polypeptide. Each peptide and an analog as an internal standard are extracted from 100% specie specified plasma using methanol with 0.1% formic acid. A Thermo Q-Exactive, High Resolution Instrument, and a Thermo Easy Spray PepMap are combined for LC/MS detection.

The next series addresses T1, human NPRA (Homo sapiens, UniProt P16066).
T1 construct: Full-Length cDNA Cloning and Generation of Cell Lines Overexpressing Natriuretic Peptide Receptors (NPRs); expressed in transfected cells; host or cells: Jump-in T-Rex HEK293 cells, pJTI R4 CMV-TO MCS pA vector, tetracycline induction
T1 sequence (P16066 33-1061): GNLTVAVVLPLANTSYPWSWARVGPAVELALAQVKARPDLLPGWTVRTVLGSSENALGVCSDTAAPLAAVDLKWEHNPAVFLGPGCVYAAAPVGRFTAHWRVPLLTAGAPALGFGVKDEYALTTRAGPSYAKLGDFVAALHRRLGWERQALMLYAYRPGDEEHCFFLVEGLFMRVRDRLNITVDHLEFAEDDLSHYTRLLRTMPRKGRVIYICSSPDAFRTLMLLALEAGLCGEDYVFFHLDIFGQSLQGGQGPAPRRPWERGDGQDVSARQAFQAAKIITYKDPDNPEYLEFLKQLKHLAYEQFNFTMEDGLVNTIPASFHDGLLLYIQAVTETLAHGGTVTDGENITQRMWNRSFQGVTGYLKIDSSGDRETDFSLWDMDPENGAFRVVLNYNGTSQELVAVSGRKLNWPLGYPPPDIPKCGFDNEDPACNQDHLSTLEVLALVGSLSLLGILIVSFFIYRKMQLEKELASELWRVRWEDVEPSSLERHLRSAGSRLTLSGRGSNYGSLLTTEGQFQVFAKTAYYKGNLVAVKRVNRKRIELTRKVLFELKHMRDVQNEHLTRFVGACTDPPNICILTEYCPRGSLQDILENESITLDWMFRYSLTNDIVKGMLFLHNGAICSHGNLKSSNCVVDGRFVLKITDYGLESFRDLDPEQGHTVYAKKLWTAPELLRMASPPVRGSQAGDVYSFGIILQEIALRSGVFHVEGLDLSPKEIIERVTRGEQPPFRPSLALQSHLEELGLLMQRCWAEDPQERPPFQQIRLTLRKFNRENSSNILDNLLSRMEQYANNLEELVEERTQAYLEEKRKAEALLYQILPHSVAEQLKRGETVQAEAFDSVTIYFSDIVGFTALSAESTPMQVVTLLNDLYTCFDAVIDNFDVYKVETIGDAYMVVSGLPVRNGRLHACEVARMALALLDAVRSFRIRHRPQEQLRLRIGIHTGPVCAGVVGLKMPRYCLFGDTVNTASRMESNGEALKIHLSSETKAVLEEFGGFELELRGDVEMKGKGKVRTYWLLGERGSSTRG
Nature of the series: Human NPRA cGMP activity assay (HTRF) in HEK293 cells overexpressing NPRA. In kind it is cell-based. The settings on record: assay buffer with 0.1% casein. The method, boiled down: (§1)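 cGMP measured by HTRF and scaled between buffer (minimum) and 100 nM amidated rat ANP (maximum). Polypeptides in 10-fold steps from 10 μM to 1 pM, 0.5% DMSO, 0.5 mM IBMX, 40 min at room temperature, on induced NPRA-overexpressing HEK293 cells.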
For orientation: TR-FRET usually uses a lanthanide donor and a delayed reading to cut background.

A further series concerns the target T2, rat NPRA (Rattus norvegicus, UniProt P18910).
T2 construct: Full-Length cDNA Cloning and Generation of Cell Lines Overexpressing Natriuretic Peptide Receptors (NPRs); expressed in transfected cells; host or cells: Jump-in T-Rex HEK293 cells, pJTI R4 CMV-TO MCS pA vector, tetracycline induction
T2 sequence (P18910 29-1057): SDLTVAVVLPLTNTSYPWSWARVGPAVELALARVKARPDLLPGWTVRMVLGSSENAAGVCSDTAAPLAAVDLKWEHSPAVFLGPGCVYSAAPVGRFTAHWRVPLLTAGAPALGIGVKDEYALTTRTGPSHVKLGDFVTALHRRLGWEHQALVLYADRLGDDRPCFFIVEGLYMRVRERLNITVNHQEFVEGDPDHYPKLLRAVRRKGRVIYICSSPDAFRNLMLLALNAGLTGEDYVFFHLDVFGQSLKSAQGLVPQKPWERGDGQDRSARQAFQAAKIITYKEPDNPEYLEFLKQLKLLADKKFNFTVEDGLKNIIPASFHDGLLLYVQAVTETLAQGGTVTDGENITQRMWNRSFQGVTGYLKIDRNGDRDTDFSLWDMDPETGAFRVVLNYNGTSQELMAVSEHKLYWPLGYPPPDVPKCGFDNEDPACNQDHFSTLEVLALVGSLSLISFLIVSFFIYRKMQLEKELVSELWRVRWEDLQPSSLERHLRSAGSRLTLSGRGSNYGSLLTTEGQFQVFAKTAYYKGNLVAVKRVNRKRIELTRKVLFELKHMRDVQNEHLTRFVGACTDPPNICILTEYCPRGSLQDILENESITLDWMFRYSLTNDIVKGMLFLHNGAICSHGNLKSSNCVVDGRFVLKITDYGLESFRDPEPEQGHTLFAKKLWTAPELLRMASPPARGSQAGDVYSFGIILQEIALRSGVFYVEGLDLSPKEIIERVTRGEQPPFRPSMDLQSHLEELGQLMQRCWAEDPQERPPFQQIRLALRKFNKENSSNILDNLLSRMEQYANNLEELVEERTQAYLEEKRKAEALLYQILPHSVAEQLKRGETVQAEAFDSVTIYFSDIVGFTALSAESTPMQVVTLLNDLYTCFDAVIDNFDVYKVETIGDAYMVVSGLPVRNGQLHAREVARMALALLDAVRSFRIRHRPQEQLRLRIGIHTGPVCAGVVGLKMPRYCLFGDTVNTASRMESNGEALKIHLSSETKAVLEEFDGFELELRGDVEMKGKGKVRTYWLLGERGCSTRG
The series is described as follows: Rat NPRA cGMP activity assay (HTRF) in HEK293 cells overexpressing NPRA. The series is classed as cell-based. The method, boiled down: as §1

Where [2] appears, read: read-out: cGMP Assay (EC50, pM) w/Casein hNPRA.
Setting [3] is: assay buffer with 0.1% BSA, read-out: cGMP Assay (EC50, pM) w/BSA rNPRA.

Where two headings read alike, the source gives them in different places. Numbered stars: 1 amine (or outer) side, 2 acyl side, 3 side chain; on linkers, the order of the positions; unused ones are H or OH. Bridge positions count the residues as written; N and C are the ends. Square brackets hold non-standard residues; d marks the D form. * marks the point of attachment. PEG24 = NCCOCCOCCOCCOCCOCCOCCOCCOCCOCCOCCOCCOCCOCCOCCOCCOCCOCCOCCOCCOCCOCCOCCOCCOCCC(=O)O; C20 diacid = O=C(O)CCCCCCCCCCCCCCCCCCC(=O)*; γGlu = O=C(O)[C@H](CCC(=O)[*:2])N[*:1]; 4Pal = N[C@@H](Cc1ccncc1)C(=O)O; CH2 = C([*:1])[*:2]

One may read the CL/F as clearance divided by bioavailability, as obtained after extravascular dosing. In series [1], “{C20 diacid-γGlu}-EKEKEKG[PEG24]S[4Pal]RRSSCFGGRIDRIGHQSGLGCPSFRHGGKSSGAPPPS-NH2 (linker 15-31 via CH2) [Example 75]” gave a CL/F of 0.0109 L/h/kg. The half-life in series [1] (read-out: t½ (converted)) is 17 h.

For the compound `CC[C@H](C)[C@@H]1NC(=O)[C@H](CCCNC(=N)N)NC(=O)[C@H](CC(=O)O)NC(=O)[C@H]([C@@H](C)CC)NC(=O)[C@H](CCCNC(=N)N)NC(=O)[C@H](CCCCN)NC(=O)CNC(=O)[C@H](Cc2ccccc2)NC(=O)[C@@H](NC(=O)[C@H](CO)NC(=O)[C@H](CO)NC(=O)[C@H](CCCNC(=N)N)NC(=O)[C@H](CCCNC(=N)N)NC(=O)[C@H](Cc2ccncc2)NC(=O)[C@H](CO)NC(=O)COCCOCCNC(=O)COCCOCCNC(=O)COCCOCCNC(=O)COCCOCCNC(=O)COCCOCCNC(=O)COCCOCCNC(=O)CNC(=O)[C@H](CCCCN)NC(=O)[C@H](CCC(=O)O)NC(=O)[C@H](CCCCN)NC(=O)[C@H](CCC(=O)O)NC(=O)[C@H](CCCCN)NC(=O)[C@H](CCC(=O)O)NC(=O)CC[C@H](NC(=O)CCCCCCCCCCCCCCCCCCC(=O)O)C(=O)O)CSCSC[C@@H](C(=O)N2CCC[C@H]2C(=O)N[C@@H](CO)C(=O)N[C@@H](Cc2ccccc2)C(=O)N[C@@H](CCCNC(=N)N)C(=O)N[C@@H](Cc2c[nH]cn2)C(=O)NCC(=O)N[C@@H](CO)C(=O)N2CCC[C@H]2C(=O)N[C@@H](CO)C(=O)N[C@@H](CO)C(=O)NCC(=O)N[C@@H](C)C(=O)N2CCC[C@H]2C(=O)N2CCC[C@H]2C(=O)N2CCC[C@H]2C(=O)N[C@@H](CO)C(N)=O)NC(=O)CNC(=O)[C@H](CC(C)C)NC(=O)CNC(=O)[C@H](CO)NC(=O)[C@H](Cc2ccc(O)cc2)NC(=O)[C@H](Cc2c[nH]cn2)NC(=O)CNC1=O` [Example 113], the EC50 at human NPRA (cGMP Assay (EC50, pM) w/Casein hNPRA) came to 621 pM; on rat NPRA (cGMP Assay (EC50, pM) w/BSA rNPRA, assay buffer with 0.1% BSA), 149000 pM.

`CC[C@H](C)[C@@H]1NC(=O)[C@H](CCCNC(=N)N)NC(=O)[C@H](CC(=O)O)NC(=O)[C@H]([C@@H](C)CC)NC(=O)[C@H](CCCNC(=N)N)NC(=O)CNC(=O)CNC(=O)[C@H](Cc2ccccc2)NC(=O)[C@@H](NC(=O)[C@H](CO)NC(=O)[C@H](CO)NC(=O)[C@H](CCCNC(=N)N)NC(=O)[C@H](CCCNC(=N)N)NC(=O)[C@H](Cc2ccncc2)NC(=O)[C@H](CO)NC(=O)CNC(=O)[C@H](CCCCN)NC(=O)[C@H](CCC(=O)O)NC(=O)[C@H](CCCCN)NC(=O)[C@H](CCC(=O)O)NC(=O)[C@H](CCCCN)NC(=O)[C@H](CCC(=O)O)NC(=O)CC[C@H](NC(=O)CCCCCCCCCCCCCCCCCCC(=O)O)C(=O)O)CSSC[C@@H](C(=O)N[C@@H](CC(N)=O)C(=O)N[C@@H](CO)C(=O)N[C@@H](Cc2ccccc2)C(=O)N[C@@H](CCCNC(=N)N)C(=O)N[C@@H](Cc2ccc(O)cc2)C(N)=O)NC(=O)CNC(=O)[C@H](CC(C)C)NC(=O)CNC(=O)[C@H](CO)NC(=O)[C@H](CCC(N)=O)NC(=O)[C@H](C)NC(=O)CNC1=O` [Example 11]: the EC50 worked out at 1020 pM on human NPRA (setting [2]) and 24700 pM on rat NPRA (setting [3]).

Take “{C20 diacid-γGlu}-EKEKEKGS[4Pal]RRSSCFGGRIDRIGHQSGLGCPSFRHGGKSSGAPPPS-NH2 (linker 14-30 via CH2) [Example 67]”: the EC50 is 1220 pM on human NPRA (setting [2]) and 18800 pM on rat NPRA (assay buffer with 0.1% casein, read-out: cGMP Assay (EC50, pM) w/Casein rNPRA).

As to `CC[C@H](C)[C@@H]1NC(=O)[C@H](CCCNC(=N)N)NC(=O)[C@H](CC(=O)O)NC(=O)[C@H]([C@@H](C)CC)NC(=O)[C@H](CCCNC(=N)N)NC(=O)[C@H](CCCCN)NC(=O)CNC(=O)[C@H](Cc2ccccc2)NC(=O)[C@@H](NC(=O)[C@H](CO)NC(=O)[C@H](CO)NC(=O)[C@H](CCCNC(=N)N)NC(=O)[C@H](CCCNC(=N)N)NC(=O)[C@H](Cc2ccncc2)NC(=O)[C@H](CO)NC(=O)COCCOCCNC(=O)COCCOCCNC(=O)COCCOCCNC(=O)COCCOCCNC(=O)COCCOCCNC(=O)COCCOCCNC(=O)COCCOCCNC(=O)COCCOCCNC(=O)CNC(=O)[C@H](CCCCN)NC(=O)[C@H](CCC(=O)O)NC(=O)[C@H](CCCCN)NC(=O)[C@H](CCC(=O)O)NC(=O)[C@H](CCCCN)NC(=O)[C@H](CCC(=O)O)NC(=O)CC[C@H](NC(=O)CCCCCCCCCCCCCCCCCCC(=O)O)C(=O)O)CSCSC[C@@H](C(=O)N2CCC[C@H]2C(=O)N[C@@H](CO)C(=O)N[C@@H](Cc2ccccc2)C(=O)N[C@@H](CCCNC(=N)N)C(=O)N[C@@H](Cc2c[nH]cn2)C(=O)NCC(=O)NCC(=O)N[C@@H](CCCCN)C(=O)N[C@@H](CO)C(=O)N[C@@H](CO)C(=O)NCC(=O)N[C@@H](C)C(=O)N2CCC[C@H]2C(=O)N2CCC[C@H]2C(=O)N2CCC[C@H]2C(=O)N[C@@H](CO)C(N)=O)NC(=O)CNC(=O)[C@H](CC(C)C)NC(=O)CNC(=O)[C@H](CO)NC(=O)[C@H](CCC(N)=O)NC(=O)[C@H](Cc2c[nH]cn2)NC(=O)CNC1=O` [Example 87], the EC50 came out at 621 pM on human NPRA (setting [2]) and 463000 pM at rat NPRA (setting [3]).

Source of the values: US20240174727A1, “LONG-ACTING NATRIURETIC PEPTIDES AND USES THEREOF” (Eli Lilly and Company, priority 2022, published 2024).
